Assay results taken from patent publication US7588931B2, “High arachidonic acid producing strains of Yarrowia lipolytica” (E. I. du Pont de Nemours and Company, priority 2004, dated 2009).
“Also recorded” adds a separate entry of the source.

Key:
Assay type in all cases: cell-based, Yarrowia lipolytica
[1] = system: wild type Y. lipolytica strains ATCC #20362 and ATCC #90812; test: Sulfonylurea sensitivity screening of wild type strains; details: wild type strains ATCC #20362 and ATCC #90812
From the text: When the amino acid sequences of wild type AHAS Y. lipolytica (GenBank Accession No. XP—501277) and S. cerevisiae (GenBank Accession No. P07342) enzymes were aligned, the Trp amino acid residue at position 586 of the S. cerevisiae enzyme was equivalent to the Trp residue at position 497 of the Y. lipolytica enzyme. It was therefore hypothesized that W497L mutation in the Y. lipolytica enzyme would likely confer sulfonylurea herbicide resistance, if the wild type cells were themselves sensitive to sulfonylurea. Using methodology well known to those of skill in the art, it was determined that sulfonylurea (chlorimuron ethyl) at a concentration of 100 μg/mL in minimal medium was sufficient to inhibit growth of wild type Y. lipolytica strains ATCC #20362 and ATCC #90812.

[2] = system: β-glucuronidase (GUS) reporter; test: Comparative analysis of promoters by histochemical analysis of GUS expression
Experimental: Comparative studies investigating the promoter activities of the TEF, GPD, GPDIN, GPM, GPAT, FBA, FBAIN and YAT1 promoters were performed, by synthesizing constructs comprising each promoter and the E. coli gene encoding β-glucuronidase (GUS) as a reporter gene (Jefferson, R. A. Nature. 14(342):837-838 (1989)). Then, GUS activity was measured by histochemical and fluorometric assays (Jefferson, R. A. Plant Mol. Biol. Reporter 5:387-405 (1987)) and/or by using Real Time PCR for mRNA quantitation.
Yarrowia lipolytica ATCC #76982 strains containing plasmids pY5-30, pYZGDG, pYZGMG, pDMW212 and pDMW214 were grown from single colonies in 3 mL MM at 30° C. to an OD600˜1.0. Then, 100 μl of cells were collected by centrifugation, resuspended in 100 μl of histochemical staining buffer, and incubated at 30° C. Staining buffer was prepared by dissolving 5 mg of 5-bromo-4-chloro-3-indolyl glucuronide (X-Gluc) in 50 μl dimethyl formamide, followed by the addition of 5 mL 50 mM NaPO4, pH 7.0.
In a separate experiment, Y. lipolytica Y2034 strains containing plasmids pY5-30, pYGPAT-GUS, pYAT-GUS and pDMW214 were grown from single colonies in 5 mL SD media at 30° C. for 24 hrs to an OD600˜8.0. Then, 1 mL of cells were collected by centrifugation. The remaining cultures were centrifuged and washed 2× with HGM, resuspended in 5 mL each of HGM and allowed to grow at 30° C. further. […]

[3] = system: β-glucuronidase (GUS) reporter; test: Comparative analysis of promoters by fluorometric assay of GUS expression
Experimental: GUS activity was also assayed by fluorometric determination of the production of 4-methylumbelliferone (4-MU) from the corresponding substrate β-glucuronide (Jefferson, R. A. Plant Mol. Biol. Reporter 5:387-405 (1987)).
Yarrowia lipolytica ATCC #76982 strains containing plasmids pY5-30, PYZGDG, PYZGMG, pDMW212 and pDMW214 were grown from single colonies in 3 mL MM (as described above) at 30° C. to an OD600˜1.0. Then, the 3 mL cultures were each added to a 500 mL flask containing 50 mL MM and grown in a shaking incubator at 30° C. for about 24 hrs. The cells were collected by centrifugation, resuspended in Promega Cell Lysis Buffer and lysed using the BIO 101 Biopulverizer system (Vista, Calif.). After centrifugation, the supernatants were removed and kept on ice.
Similarly, Y. lipolytica strain Y2034 containing plasmids pY5-30, pYAT-GUS, pYGPAT-GUS and pDMW214 constructs, respectively, were grown from single colonies in 10 mL SD medium at 30° C. for 48 hrs to an OD600˜5.0. Two mL of each culture was collected for GUS activity assays, as described below, while 5 mL of each culture was switched into HGM.
Specifically, cells from the 5 mL aliquot were collected by centrifugation, washed once with 5 mL of HGM and resuspended in HGM. The cultures in HGM were then grown in a shaking incubator at 30° C. for 24 hrs. Two mL of each HGM culture were collected for the GUS activity assay, while the remaining culture was allowed to grow for an additional 96 hrs before collecting an additional 2 mL of each culture for the assay.
Each 2 mL culture sample in SD medium was resuspended in 1 mL of 0.5× cell culture lysis reagent (Promega). Resuspended cells were mixed with 0.6 mL of glass beads (0.5 mm diameter) in a 2.0 mL screw cap tube with a rubber O-ring. The cells were then homogenized in a Biospec mini beadbeater (Bartlesville, Okla.) at the highest setting for 90 sec. The homogenization mixtures were centrifuged for 2 min at 14,000 rpm in an Eppendof centrifuge to remove cell debris and beads. The supernatant was used for GUS assay and protein determination.
For each fluorometric assay, 100 μl of extract was added to […] of GUS assay buffer (2 mM 4-methylumbelliferyl-β-D-glucuronide (“MUG”) in extraction buffer) or 200 μl of extract was added to 800 μl of GUS assay buffer. The mixtures were placed at 37° C. Aliquots of 100 μl were taken at 0, 30 and 60 min time points and added to 900 μl of stop buffer (1 M Na2CO3). Each time point was read using a CytoFluor Series 4000 Fluorescence Multi-Well Plate Reader (PerSeptive Biosystems, Framingham, Mass.) set to an excitation wavelength of 360 nm and an emission wavelength of 455 nm. Total protein concentration of each sample was determined using 10 μl of extract and 200 μl of BioRad Bradford reagent or 20 μl of extract and 980 μl of BioRad Bradford reagent (Bradford, M. M. Anal. Biochem. 72:248-254 (1976)). GUS activity was expressed as nmoles of 4-MU per minute per mg of protein.

[4] = system: β-glucuronidase (GUS) reporter; test: Relative promoter activity rank from comparative GUS reporter studies (histochemical, fluorometric and/or Real Time PCR); details: relative to other promoters
Experimental: The activity of GPM is about the same as TEF, while the activity of GPD, FBA, FBAIN, FBAINm, GPDIN, GPAT, YAT1 and EXP1 are all greater than TEF (activity is quantified in a relative manner in the column titled “Activity Rank”, wherein a ‘1’ corresponds to the promoter with lowest activity, while a ‘7’ corresponds to the promoter with highest activity). […] GUS activity in each expressed construct was measured by histochemical and/or fluorometric assays (Jefferson, R. A. Plant Mol. Biol. Reporter 5:387-405 (1987)) and/or by use of Real Time PCR.

Molecule | concentration in minimal medium sufficient to inhibit growth [1] | promoter activity by histochemical staining ([2]; strain Y2034, 24 hr in SD medium, FIG. 5C) | promoter activity by histochemical staining ([2]; strain Y2034, grown in HGM for 24 hrs) | promoter activity relative to activity in SD medium ([3]; after 120 hrs in HGM) | GUS activity ([3]; strain Y2034, 24 hr, HGM) | GUS activity ([3]; strain Y2034, 48 hr, SD) | GUS activity ([3]; strain Y2034, 120 hr HGM) | increase of promoter activity ([3]; switched from SD medium into HGM and grown for 24 hrs) | Activity “Rank” [4]
CCOC(=O)c1ccccc1S(=O)(=O)NC(=O)Nc1nc(Cl)cc(OC)n1 [chlorimuron ethyl] | 100 µg/mL | – | – | – | – | – | – | – | –
YAT1: Y. lipolytica ammonium transporter promoter, SEQ ID NO:165 | – | active; also recorded: stronger than the TEF promoter but significantly weaker than the FBAIN promoter and GPAT promoter | stronger than the GPAT promoter and comparable with the FBAIN promoter | 25 × | 19.154 nmoles of 4-MU per minute per mg of protein | 0.536 nmoles of 4-MU per minute per mg of protein | 13.400 nmoles of 4-MU per minute per mg of protein | ~37 fold | 6
